The values below come from patent US5919811A, “3-Substituted-indole-2-carboxylic acid derivatives as excitatory amino acid antagonists” (Glaxo Wellcome S.p.A., priority 1995, dated 1999).

Each structure is given as a SMILES string. pKi: −log10 of the molar value. Counter-ions that a name gives are not always drawn.

One assay has as its target T1, strychnine insensitive glycine binding site located on the NMDA receptor complex (Rattus norvegicus, UniProt P35439).
T1 construct: from tissue; host or cells: central nervous system membranes, rat
As to the kind of experiment: affinity for strychnine insensitive glycine binding site located on the NMDA receptor complex (procedure of Kishimoto H. et al).
Conditions: not given
How it is done:
The potent and selective action of the compound of the invention at the strychnine- insensitive glycine binding site present on the NMDA receptor complex may be readily determined using conventional test procedures. Thus the ability to bind at the strychnine insensitive glycine binding site was determined using the procedure of Kishimoto H et al. J Neurochem 1981, 37 1015-1024. The selectivity of the action of compounds of the invention for the strychnine insensitive glycine site was confirmed in studies at other ionotropic known excitatory amino acid receptors.
The affinity of a compound of the invention for strychnine insensitive glycine binding site located on the NMDA receptor complex was determined using the procedure of Kishimoto H. et al J. Neurochem 1981, 37, 1015-1024. The pKi with representative compounds of the invention are given in […]
For `O=C(/C=C/c1c(C(=O)O)[nH]c2cc(Cl)cc(Cl)c12)Nc1ccc(CNC(=O)NC2CCOCC2)cc1` [Example 39], the pKi – broadly, the negative decadic logarithm of the Ki, by convention in mol/L – is 8.04. Take `O=C(/C=C/c1c(C(=O)O)[nH]c2cc(Cl)cc(Cl)c12)Nc1ccc(NC(=O)NC2CCOCC2)cc1` [Example 52, 4,6-dichloro-3-[(E)-2'-(4'-(-tetrahydropyran-4"-yl)-ureidophenylcarbamoyl)ethenyl]-1-H-indole-2-carboxylic acid sodium salt]: the pKi is 8.30. On to `O=C(/C=C/c1c(C(=O)O)[nH]c2cc(Cl)cc(Cl)c12)Nc1ccc(NC(=O)Nc2ccccc2)cc1` [Example 24, (E)-4,6-dichloro-3-[2'-(4'-phenyl-ureido-phenylcarbamoyl)ethenyl]-1H-indole-2-carboxylic acid], for which the pKi is 7.40.

`O=C(/C=C/c1c(C(=O)O)[nH]c2cc(Cl)cc(Cl)c12)Nc1ccc(NC(=O)Nc2cccnc2)cc1` [Example 51, 4,6-dichloro-3-[(E)-2'-(4'-nicotin-3-ylureidophenylcarbamoyl)ethenyl]-1-H-indole2-carboxylic acid] had a pKi of 8.41. For `O=C(/C=C/c1c(C(=O)O)[nH]c2cc(Cl)cc(Cl)c12)Nc1ccc(CNC(=O)Nc2ccccc2)cc1` [Example 16, (E)4,6-dichloro-3-[2'-(4'-phenylureidomethylphenylcarbamoyl)ethenyl]-1-H-indole 2-carboxylic acid], the pKi was 7.70.

Compound `O=C(/C=C/c1c(C(=O)O)[nH]c2cc(Cl)cc(Cl)c12)Nc1ccc(NC(=O)NC2CC2)cc1` [Example 50, 4,6-dichloro-3-[(E)-2'-(4'-cyclopropylureidophenylcarbamoyl)ethenyl]-1-H-indole-2-carboxylic acid sodium salt] showed a pKi of 8.50. `NC(=O)Nc1ccc(NC(=O)/C=C/c2c(C(=O)O)[nH]c3cc(Cl)cc(Cl)c23)cc1` [Example 21, 4,6-dichloro-3-[(E)-2'-(4'-ureidophenylcarbamoyl)ethenyl]-1-H-indole2-carboxylic acid,] had a pKi of 8.74. Against the preceding compound, the pKi is 0.24 log units higher. In turn, `NC(=O)NCc1cccc(NC(=O)/C=C/c2c(C(=O)O)[nH]c3cc(Cl)cc(Cl)c23)c1` [Example 34] gave a pKi of 8.61. On the same count and under the same terms, the value for `NC(=O)NCc1ccc(NC(=O)/C=C/c2c(C(=O)O)[nH]c3cc(Cl)cc(Cl)c23)cc1` [Example 8, (E)4,6-dichloro-3-[2'-(4'-ureidomethylphenylcarbamoyl)ethenyl]-1-H-indole2-carboxylic acid] was 8.60; that for `CN(C)C(=O)Nc1ccc(NC(=O)/C=C/c2c(C(=O)O)[nH]c3cc(Cl)cc(Cl)c23)cc1` [Example 27, (E)-4,6-dichloro-3-[2'-(4'-dimethyl-ureido-phenylcarbamoyl)ethenyl]-1H-indole-2-carboxylic acid] was 8.41.

For the next assay, the system named is NMDA induced convulsions. As to the kind of experiment: inhibition of NMDA induced convulsions in the mouse (procedure of Chiamulera C et al). The following applies: iv, 0.1 mg/kg I.V., generalized seizures induced by intracerebroventricular injection of NMDA in mice. In kind it is in vivo. As for the experimental part:
The ability of compounds of the invention to inhibit NMDA induced convulsions in the mouse was determined using the procedure of Chiamulera C et al. Psychpharmacology 1990, 102,-551-552. In this test the ability of the compound to inhibit the generalized seizures induced by an intracerebroventricular injection of NMDA in mice was examined. Thus the % inhibition of the NMDA induced convulsions when a compound of the invention was given the dose of 0.1 mg/kg I.V. was determined and representative results obtained for compounds of the invention are given in the following table.
With `NC(=O)NCCc1ccc(NC(=O)/C=C/c2c(C(=O)O)[nH]c3cc(Cl)cc(Cl)c23)cc1` [Example 19, 4,6-dichloro-3-[(E)-2'-(4'-ureidoethylphenylcarbamoyl)ethenyl]-1-H-indole 2-carboxylic acid,sodium salt], 0.1 mg/kg produced 30% inhibition in vivo. Still for that read-out and setting: to `O=C(/C=C/c1c(C(=O)O)[nH]c2cc(Cl)cc(Cl)c12)Nc1ccc(CNC(=O)NC2CCOCC2)cc1` [Example 40, sodium salt] belongs 40%; to `NC(=O)NCc1ccc(NC(=O)/C=C/c2c(C(=O)O)[nH]c3cc(Cl)cc(Cl)c23)cc1` [Example 9, (E)4,6-dichloro-3-[2'-(4'-ureidomethylphenylcarbamoyl)ethenyl]-1-H-indole 2-carboxylic acid,sodium salt], 60%. Still for that read-out and setting: to `CCNC(=S)NCc1ccc(NC(=O)/C=C/c2c(C(=O)O)[nH]c3cc(Cl)cc(Cl)c23)cc1` [Example 14, (E)4,6-dichloro-3-[2'-(4'-ethylthioureidomethylphenylcarbamoyl)ethenyl]-1-H-indole 2-carboxylic acid] belongs 30%; to `O=C(O)CNC(=O)NCc1ccc(NC(=O)/C=C/c2c(C(=O)O)[nH]c3cc(Cl)cc(Cl)c23)cc1` [Example 44, (E)-4,6-dichloro-3-[2'-(4'-carboxymethylureido-methyl-phenylcarbamoyl)ethenyl]-1H-indole-2-carboxylic acid], 40%; to `O=C(/C=C/c1c(C(=O)O)[nH]c2cc(Cl)cc(Cl)c12)Nc1ccc(CNC(=O)Nc2ccccc2)cc1` [Example 16, (E)4,6-dichloro-3-[2'-(4'-phenylureidomethylphenylcarbamoyl)ethenyl]-1-H-indole 2-carboxylic acid], 30%. Same read-out and setting: the value for `O=C(/C=C/c1c(C(=O)O)[nH]c2cc(Cl)cc(Cl)c12)Nc1ccc(CNC(=O)NC2CC2)cc1` [Example 31, (E)-4,6-dichloro-3-[-2'-(4'-cyclopropyl-ureido-methyl-phenylcarbamoyl)vinyl]-1H-indole-2-carboxylic acid sodium salt] was 40%; that for `CCNC(=O)NCc1ccc(NC(=O)/C=C/c2c(C(=O)O)[nH]c3cc(Cl)cc(Cl)c23)cc1` [Example 12, (E)4,6-dichloro-3-[2'-(4'-ethylureidomethylphenylcarbamoyl)ethenyl]-1-H-indole 2-carboxylic acid,sodium salt] was 50%. Consider `COc1ccc(NC(=O)NCc2ccc(NC(=O)/C=C/c3c(C(=O)O)[nH]c4cc(Cl)cc(Cl)c34)cc2)cc1` [Example 37, (E)-4,6-dichloro-3-{2'-[4'-(4"-methoxy-phenyl-ureidomethyl)-phenylcarbamoyl]ethenyl}-1H-indole-2-carboxylic acid], for which the inhibition in vivo (usually the share of the control response that was lost under treatment) at 0.1 mg/kg worked out at 50%. The same measure, in the same setting: the value for `CCOC(=O)CNC(=O)NCc1ccc(NC(=O)/C=C/c2c(C(=O)OCC)[nH]c3cc(Cl)cc(Cl)c23)cc1` [Example 43] was 40%.
